In the NIST ThermoML archive (doi:10.1021/je900525f):

Test: xn = mol fraction of the nth substance listed
Settings: 101 kPa, Liquid; for viscosity: Capillary tube (Ostwald / Ubbelohde) method; for speed of sound: Pulse-echo method

N#CCc1ccccc1 [benzeneacetonitrile] + CCOC(C)=O
Settings | mass density, 303.15 K [kg/m3] | mass density, 308.15 K [kg/m3] | mass density, 313.15 K [kg/m3] | speed of sound, 303.15 K [m/s] | speed of sound, 308.15 K [m/s] | speed of sound, 313.15 K [m/s] | viscosity, 303.15 K [mPa·s] | viscosity, 308.15 K [mPa·s] | viscosity, 313.15 K [mPa·s]
x1 = 0.0198 | 892.4 | 887.4 | 880.8 | 1125.1 | 1109.3 | 1104.3 | 0.396 | 0.376 | 0.357
x1 = 0.1279 | 910.4 | 905.4 | 899.6 | 1173.8 | 1164.8 | 1159.7 | 0.483 | 0.458 | 0.431
x1 = 0.2425 | 926.8 | 922.7 | 916.9 | 1230.8 | 1218.2 | 1209.3 | 0.591 | 0.556 | 0.524
x1 = 0.3589 | 942.3 | 938 | 933.4 | 1286.7 | 1278.4 | 1263.6 | 0.714 | 0.668 | 0.627
x1 = 0.461 | 955.3 | 950.9 | 946.5 | 1326.1 | 1312.5 | 1303.1 | 0.839 | 0.781 | 0.733
x1 = 0.5665 | 967.5 | 963.3 | 958.5 | 1366.7 | 1355.1 | 1344.9 | 0.984 | 0.914 | 0.856
x1 = 0.6978 | 981.5 | 978.1 | 972.4 | 1417.8 | 1410.8 | 1400 | 1.18 | 1.092 | 1.017
x1 = 0.8328 | 994.9 | 991.8 | 985.2 | 1464.3 | 1461.3 | 1446.8 | 1.416 | 1.307 | 1.209
x1 = 0.9745 | 1006.5 | 1002.6 | 998.1 | 1508.3 | 1500.5 | 1490 | 1.695 | 1.554 | 1.43
x1 = 1 | 1008.8 | 1004.1 | 999.5 | 1519.2 | 1512.9 | 1503.4 | 1.761 | 1.602 | 1.489
